Here are results for seven compounds from US20250353891A1 (MEDIMMUNE LIMITED, priority 2022, published 2025).

Assay [1] deals with human glucagon receptor (hGCGR) (Homo sapiens, UniProt P47871). The experiment in a line: cAMP production (HTRF) in CHO cells expressing hGCGR. The format is cell-based. Set-up: expressed in transfected cells. Conditions: Table 6, peptides modified at position 17; cAMP in CHO hGCGR cells; geometric mean; read-out: hGluc-R EC50. The method in brief:
(§1)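 Read-out: HTRF cAMP (anti-cAMP cryptate donor, cAMP-d2 acceptor in conjugate/lysis buffer), converted to % Delta F and fitted by 4-parameter logistic for EC50. Cell densities were 1×10^5 cells/mL (hGLP-1R) or 2×10^5 cells/mL (hGCGR). Stimulation lasted 30 min at room temperature.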

Assay [2] addresses human GLP-1 receptor (hGLP-1R) (Homo sapiens, UniProt P43220). Put plainly: cAMP production (HTRF) in CHO cells expressing hGLP-1R. Set-up: expressed in transfected cells. In kind it is cell-based. The following applies: for pEC50: Table 6, peptides modified at position 17, cAMP in CHO hGLP-1R cells, geometric mean, read-out: hGLP-1R EC50; for % Relative Potency Ratio: Table 6, % GLP-1R activity relative to GLP-1 / % GlucR activity relative to glucagon. The method in brief:
as §1
For orientation: Changes in cAMP serve as a functional read-out for many G protein-coupled receptors.

pEC50: −log10 of the molar value. Starred links: 1 amine or outer side, 2 acyl side, 3 side chain; linkers in the order of their positions; H or OH if unused. Non-standard residues stand in square brackets, D forms with d. Residues, ends and D or L forms follow the SMILES beside them. Groups on a side chain read outwards from the residue. *: point of attachment. γGlu = O=C(O)[C@H](CCC(=O)[*:2])N[*:1]; Stearoyl = CCCCCCCCCCCCCCCCCC(=O)*; Palmitoyl = CCCCCCCCCCCCCCCC(=O)*; αMeF = C[C@](N)(Cc1ccccc1)C(=O)O; PEG2 = NCCOCCOCCC(=O)O; Aib = CC(C)(N)C(=O)O

human glucagon receptor (hGCGR), sequence (P47871 26-477): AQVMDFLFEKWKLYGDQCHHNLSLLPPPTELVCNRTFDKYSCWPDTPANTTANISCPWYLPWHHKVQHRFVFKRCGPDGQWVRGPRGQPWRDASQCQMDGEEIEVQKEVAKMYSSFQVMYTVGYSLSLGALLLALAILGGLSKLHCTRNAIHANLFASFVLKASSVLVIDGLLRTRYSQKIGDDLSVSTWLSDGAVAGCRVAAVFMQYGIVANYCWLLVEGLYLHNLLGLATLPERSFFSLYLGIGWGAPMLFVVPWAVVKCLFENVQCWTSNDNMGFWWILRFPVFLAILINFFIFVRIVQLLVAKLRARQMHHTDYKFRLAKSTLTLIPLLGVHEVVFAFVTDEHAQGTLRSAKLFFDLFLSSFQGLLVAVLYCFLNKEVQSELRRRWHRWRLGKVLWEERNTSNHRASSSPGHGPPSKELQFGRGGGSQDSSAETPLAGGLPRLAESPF
human GLP-1 receptor (hGLP-1R), sequence (P43220 24-463): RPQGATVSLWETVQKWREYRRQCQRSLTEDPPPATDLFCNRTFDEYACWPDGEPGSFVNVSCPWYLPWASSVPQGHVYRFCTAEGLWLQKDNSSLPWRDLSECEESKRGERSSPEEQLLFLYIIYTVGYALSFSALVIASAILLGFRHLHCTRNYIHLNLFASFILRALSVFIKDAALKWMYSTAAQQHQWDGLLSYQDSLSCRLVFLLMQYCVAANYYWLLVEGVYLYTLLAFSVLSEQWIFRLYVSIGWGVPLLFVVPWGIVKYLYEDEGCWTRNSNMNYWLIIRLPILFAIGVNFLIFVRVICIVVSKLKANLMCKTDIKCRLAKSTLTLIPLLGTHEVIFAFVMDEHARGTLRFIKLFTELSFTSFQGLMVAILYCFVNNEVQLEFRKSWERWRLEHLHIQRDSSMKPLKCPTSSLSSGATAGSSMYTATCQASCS

For `CCCCCCCCCCCCCCCCCC(=O)N[C@@H](CCC(=O)N[C@@H](CCC(=O)NCCOCCOCCC(=O)NCCOCCOCCC(=O)NCCCC[C@H](NC(=O)[C@H](CO)NC(=O)[C@H](CC(=O)O)NC(=O)[C@H](CC(C)C)NC(=O)C(C)(C)NC(=O)[C@H](CCCCN)NC(=O)[C@H](CO)NC(=O)[C@@H](NC(=O)[C@H](CC(=O)O)NC(=O)[C@H](CO)NC(=O)[C@@H](NC(=O)[C@](C)(Cc1ccccc1)NC(=O)[C@H](CO)NC(=O)CNC(=O)[C@H](CCC(N)=O)NC(=O)[C@H](CO)NC(=O)[C@@H](N)Cc1c[nH]cn1)[C@@H](C)O)C(C)C)C(=O)N[C@@H](C)C(=O)N[C@@H](C)C(=O)N[C@@H](CCC(N)=O)C(=O)N[C@@H](CC(=O)O)C(=O)N[C@@](C)(Cc1ccccc1)C(=O)N[C@H](C(=O)N[C@@H](CCC(N)=O)C(=O)NC(C)(C)C(=O)N[C@H](C(=O)N[C@H](C(=O)N[C@@H](CCC(=O)O)C(N)=O)[C@@H](C)CC)[C@@H](C)CC)C(C)C)C(=O)O)C(=O)O` [Peptide 98] (H-HSQGS[αMeF]TSDVSK[Aib]LDSK([PEG2-PEG2-γGlu-γGlu-Stearoyl])AAQD[αMeF]VQ[Aib]IIE-NH2; N-terminus assumed), the negative logarithm of the EC50 (pEC50) in assay [1] is 10.27. In assay [2], the pEC50 is 11.61 and the “% Relative Potency Ratio” value was 43.8.
In the same order, the values of `CCCCCCCCCCCCCCCC(=O)N[C@@H](CCC(=O)N[C@@H](CCC(=O)NCCOCCOCCC(=O)NCCOCCOCCC(=O)NCCCC[C@H](NC(=O)[C@H](CO)NC(=O)[C@H](CC(=O)O)NC(=O)[C@H](CC(C)C)NC(=O)C(C)(C)NC(=O)[C@H](CCCCN)NC(=O)[C@H](CO)NC(=O)[C@@H](NC(=O)[C@H](CC(=O)O)NC(=O)[C@H](CO)NC(=O)[C@@H](NC(=O)[C@](C)(Cc1ccccc1)NC(=O)[C@H](CO)NC(=O)CNC(=O)[C@H](CCC(N)=O)NC(=O)[C@H](CO)NC(=O)[C@@H](N)Cc1c[nH]cn1)[C@@H](C)O)C(C)C)C(=O)N[C@@H](C)C(=O)N[C@@H](C)C(=O)N[C@@H](CCC(N)=O)C(=O)N[C@@H](CC(=O)O)C(=O)N[C@@](C)(Cc1ccccc1)C(=O)N[C@H](C(=O)N[C@@H](CCC(N)=O)C(=O)NC(C)(C)C(=O)N[C@H](C(=O)N[C@@H](C)C(=O)N[C@@H](CC(N)=O)C(N)=O)[C@@H](C)CC)C(C)C)C(=O)O)C(=O)O` [Peptide 99] (H-HSQGS[αMeF]TSDVSK[Aib]LDSK([PEG2-PEG2-γGlu-γGlu-Palmitoyl])AAQD[αMeF]VQ[Aib]IAN-NH2; N-terminus assumed) are 10.48, 11.66 and 29.7.
For `CCCCCCCCCCCCCCCCCC(=O)N[C@@H](CCC(=O)N[C@@H](CCC(=O)NCCOCCOCCC(=O)NCCOCCOCCC(=O)NCCCC[C@H](NC(=O)[C@H](CO)NC(=O)[C@H](CC(=O)O)NC(=O)[C@H](CC(C)C)NC(=O)C(C)(C)NC(=O)[C@H](CCCCN)NC(=O)[C@H](CO)NC(=O)[C@@H](NC(=O)[C@H](CC(=O)O)NC(=O)[C@H](CO)NC(=O)[C@@H](NC(=O)[C@](C)(Cc1ccccc1)NC(=O)[C@H](CO)NC(=O)CNC(=O)[C@H](CCC(N)=O)NC(=O)C(C)(C)NC(=O)[C@@H](N)Cc1c[nH]cn1)[C@@H](C)O)C(C)C)C(=O)N[C@@H](C)C(=O)N[C@@H](C)C(=O)N[C@@H](CCC(N)=O)C(=O)N[C@@H](CC(=O)O)C(=O)N[C@@](C)(Cc1ccccc1)C(=O)N[C@H](C(=O)N[C@@H](CCC(N)=O)C(=O)NC(C)(C)C(=O)N[C@H](C(=O)N[C@@H](C)C(=O)N[C@@H](CC(N)=O)C(N)=O)[C@@H](C)CC)C(C)C)C(=O)O)C(=O)O` [Peptide 100] (H-H[Aib]QGS[αMeF]TSDVSK[Aib]LDSK([PEG2-PEG2-γGlu-γGlu-Stearoyl])AAQD[αMeF]VQ[Aib]IAN-NH2; N-terminus assumed), the pEC50 in assay [1] was 10.39. The “% Relative Potency Ratio” value in assay [2] is recorded as 310.3.
In the same order, the values of `CCCCCCCCCCCCCCCCCC(=O)N[C@@H](CCC(=O)N[C@@H](CCC(=O)NCCOCCOCCC(=O)NCCOCCOCCC(=O)NCCCC[C@H](NC(=O)[C@H](CO)NC(=O)[C@H](CC(=O)O)NC(=O)[C@H](CC(C)C)NC(=O)C(C)(C)NC(=O)[C@H](CCCCN)NC(=O)[C@H](CO)NC(=O)[C@@H](NC(=O)[C@H](CC(=O)O)NC(=O)[C@H](CO)NC(=O)[C@@H](NC(=O)[C@](C)(Cc1ccccc1)NC(=O)[C@H](CO)NC(=O)CNC(=O)[C@H](CCC(N)=O)NC(=O)C(C)(C)NC(=O)[C@@H](N)Cc1c[nH]cn1)[C@@H](C)O)C(C)C)C(=O)N[C@@H](C)C(=O)N[C@@H](C)C(=O)N[C@@H](CCC(N)=O)C(=O)N[C@@H](CC(=O)O)C(=O)N[C@@](C)(Cc1ccccc1)C(=O)N[C@H](C(=O)N[C@@H](CCC(N)=O)C(=O)N[C@@H](Cc1c[nH]c2ccccc12)C(=O)N[C@H](C(=O)N[C@@H](C)C(=O)N[C@@H](CC(N)=O)C(N)=O)[C@@H](C)CC)C(C)C)C(=O)O)C(=O)O` [Peptide 103] (H-H[Aib]QGS[αMeF]TSDVSK[Aib]LDSK([PEG2-PEG2-γGlu-γGlu-Stearoyl])AAQD[αMeF]VQWIAN-NH2; N-terminus assumed) are 10.23 and 220.8.
For the compound `CCCCCCCCCCCCCCCCCC(=O)N[C@@H](CCC(=O)N[C@@H](CCC(=O)NCCOCCOCCC(=O)NCCOCCOCCC(=O)NCCCC[C@H](NC(=O)[C@H](CO)NC(=O)[C@H](CC(=O)O)NC(=O)[C@H](CC(C)C)NC(=O)C(C)(C)NC(=O)[C@H](CCCCN)NC(=O)[C@H](CO)NC(=O)[C@@H](NC(=O)[C@H](CC(=O)O)NC(=O)[C@H](CO)NC(=O)[C@@H](NC(=O)[C@](C)(Cc1ccccc1)NC(=O)[C@H](CO)NC(=O)CNC(=O)[C@H](CCC(N)=O)NC(=O)[C@@H](NC(=O)[C@@H](N)Cc1c[nH]cn1)[C@@H](C)O)[C@@H](C)O)C(C)C)C(=O)N[C@@H](C)C(=O)N[C@@H](C)C(=O)N[C@@H](CCC(N)=O)C(=O)N[C@@H](CC(=O)O)C(=O)N[C@@](C)(Cc1ccccc1)C(=O)N[C@H](C(=O)N[C@@H](CCC(N)=O)C(=O)NC(C)(C)C(=O)N[C@H](C(=O)N[C@@H](C)C(=O)N[C@@H](CC(N)=O)C(N)=O)[C@@H](C)CC)C(C)C)C(=O)O)C(=O)O` [Peptide 104] (H-HTQGS[αMeF]TSDVSK[Aib]LDSK([PEG2-PEG2-γGlu-γGlu-Stearoyl])AAQD[αMeF]VQ[Aib]IAN-NH2; N-terminus assumed), in assay [1], the negative logarithm of the EC50 (pEC50) was 10.34. Moreover, in assay [2], the negative logarithm of the EC50 (pEC50) is 9.61 and the “% Relative Potency Ratio” value is reported as 0.4.
Turning to `CCCCCCCCCCCCCCCC(=O)N[C@@H](CCC(=O)N[C@@H](CCC(=O)NCCOCCOCCC(=O)NCCOCCOCCC(=O)NCCCC[C@H](NC(=O)[C@H](CO)NC(=O)[C@H](CC(=O)O)NC(=O)[C@H](CC(C)C)NC(=O)C(C)(C)NC(=O)[C@H](CCCCN)NC(=O)[C@H](CO)NC(=O)[C@@H](NC(=O)[C@H](CC(=O)O)NC(=O)[C@H](CO)NC(=O)[C@@H](NC(=O)[C@](C)(Cc1ccccc1)NC(=O)[C@H](CO)NC(=O)CNC(=O)[C@H](CCC(N)=O)NC(=O)[C@H](CO)NC(=O)[C@@H](N)Cc1c[nH]cn1)[C@@H](C)O)C(C)C)C(=O)N[C@@H](CCC(N)=O)C(=O)N[C@@H](C)C(=O)N[C@@H](CCC(N)=O)C(=O)N[C@@H](CC(=O)O)C(=O)N[C@@](C)(Cc1ccccc1)C(=O)N[C@H](C(=O)N[C@@H](CCC(N)=O)C(=O)NC(C)(C)C(=O)N[C@H](C(=O)N[C@@H](C)C(=O)N[C@@H](CC(N)=O)C(N)=O)[C@@H](C)CC)C(C)C)C(=O)O)C(=O)O` [Peptide 105] (H-HSQGS[αMeF]TSDVSK[Aib]LDSK([PEG2-PEG2-γGlu-γGlu-Palmitoyl])QAQD[αMeF]VQ[Aib]IAN-NH2), the pEC50 was 9.92 in assay [1] and 10.19 in assay [2]. In addition, in assay [2], the “% Relative Potency Ratio” value turned out to be 3.7.
Turning to `CCCCCCCCCCCCCCCC(=O)N[C@@H](CCC(=O)N[C@@H](CCC(=O)NCCOCCOCCC(=O)NCCOCCOCCC(=O)NCCCC[C@H](NC(=O)[C@H](CO)NC(=O)[C@H](CC(=O)O)NC(=O)[C@H](CC(C)C)NC(=O)C(C)(C)NC(=O)[C@H](CCCCN)NC(=O)[C@H](CO)NC(=O)[C@@H](NC(=O)[C@H](CC(=O)O)NC(=O)[C@H](CO)NC(=O)[C@@H](NC(=O)[C@](C)(Cc1ccccc1)NC(=O)[C@H](CO)NC(=O)CNC(=O)[C@H](CCC(N)=O)NC(=O)[C@H](CO)NC(=O)[C@@H](N)Cc1c[nH]cn1)[C@@H](C)O)C(C)C)C(=O)N[C@@H](C)C(=O)N[C@@H](C)C(=O)N[C@@H](CCC(N)=O)C(=O)N[C@@H](CC(=O)O)C(=O)N[C@@](C)(Cc1ccccc1)C(=O)N[C@H](C(=O)N[C@@H](CCC(N)=O)C(=O)N[C@@H](Cc1c[nH]cn1)C(=O)N[C@H](C(=O)N[C@@H](C)C(=O)N[C@@H](CC(N)=O)C(N)=O)[C@@H](C)CC)C(C)C)C(=O)O)C(=O)O` [Peptide 106] (H-HSQGS[αMeF]TSDVSK[Aib]LDSK([PEG2-PEG2-γGlu-γGlu-Palmitoyl])AAQD[αMeF]VQHIAN-NH2), the figures for the pEC50 in assay [1] and in assay [2] were 10.43 and 11.17, respectively. Moreover, in assay [2], the “% Relative Potency Ratio” value was determined as 10.7.

As usually defined, the pEC50 is the negative decadic logarithm of the EC50, by convention in mol/L.
